In publication PMC6328587 (Nature Communications, 2019):

Legend:
FLAG-p38δ = target: T1, FLAG-p38δ (Homo sapiens, UniProt O15264); test: Ubiquitination assay, FLAG-p38δ and HA-Ub in HeLa cells; format: cell-based; details: 1 µM PROTAC, 2 h
T1 construct: expressed in transfected cells; host or cells: HeLa
T1 sequence (O15264 1-365): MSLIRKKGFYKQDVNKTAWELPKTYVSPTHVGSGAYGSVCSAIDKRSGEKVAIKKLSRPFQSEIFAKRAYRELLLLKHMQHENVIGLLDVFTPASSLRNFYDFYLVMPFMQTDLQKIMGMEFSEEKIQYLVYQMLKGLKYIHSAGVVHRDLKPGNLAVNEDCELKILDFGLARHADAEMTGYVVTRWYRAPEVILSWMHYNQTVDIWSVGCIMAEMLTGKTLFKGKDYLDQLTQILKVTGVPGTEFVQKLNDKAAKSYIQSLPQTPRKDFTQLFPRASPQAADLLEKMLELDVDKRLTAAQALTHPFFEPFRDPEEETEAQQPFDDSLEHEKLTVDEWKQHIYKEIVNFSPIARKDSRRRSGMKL
Protocol: HeLa cells (2 × 10^6) were seeded into 10 cm dishes and allowed to adhere overnight. On the following day, cells were transfected with 3 µg pcDNA5-FLAG-p38α or pcDNA5-FLAG-p38δ and 1 µg pRK5-HA-Ubiquitin-WT (Addgene plasmid #17608) in Opti-MEM media using Lipofectamine 2000 (Invitrogen). After 6 h, Opti-MEM media were replaced with DMEM (1 × ) and cells were grown for an additional 24 h. After this time, cells were treated with indicated concentrations of either vehicle (DMSO) or PROTAC for the indicated amount of time at 37 °C. Cells were then placed on ice, rinsed twice with ice-cold 1X PBS and lysed in 500 µL modified 1X RIPA buffer (25 mM Tris-HCl pH 7.6, 150 mM NaCl, 1% NP-40, 1% sodium deoxycholate, 0.1% SDS) containing 5 mM 1,10-phenanthroline monohydrate, 10 mM N-ethylmaleimide, 20 µM PR-619, and 1X protease inhibitor cocktail (Roche). Lysates were spun down at 14,000 × g at 4 °C for 20 min and protein content was measured by Pierce BCA Protein Assay (ThermoFisher Scientific). […] Immunoprecipitated protein was eluted off of the beads by heating at 95 °C for 5 min and the supernatant was run on an SDS-PAGE gel and evaluated for the presence of immunoprecipitated FLAG-tagged proteins (anti-FLAG M2, Sigma #F1804), as well as ubiquitinated FLAG-tagged proteins (anti-HA-tag (6E2), CST #2367). […]

α-tubulin = test: CETSA in MDA-MB-231 cell lysate, negative control protein; format: binding, human; details: 100 µM PROTAC, 51-55 °C, vs DMSO
Protocol: CETSA protocol was adapted from[60]. In all, 3 × 10^7 MDA-MB-231 cells (1 × 10^7 cells per condition) were collected and resuspended in ice-cold 1X PBS supplemented with 1X protease inhibitor cocktail (Roche) and lysed by three cycles of liquid nitrogen snap freeze, followed by 50% thaw in a room temperature water bath and an additional 50% thaw at 4 °C. After each freeze–thaw cycle, lysate was vortexed briefly to ensure homogenous thawing. Lysate was then cleared for 20 min by centrifugation (14,000 × g at 4 °C) and the soluble fraction was divided into three equal aliquots. The aliquots were treated with vehicle (2.5% DMSO), 100 µM SJFα, or 100 µM SJFδ and incubated at room temperature for 30 min with gentle rotation. Each aliquot was then divided (50 µL) into eight PCR tubes and individually heated at the indicated temperature for 3 min followed by cooling at room temperature for 3 min. After cooling, samples were spun down for 20 min (14,000 × g at 4 °C) and the supernatant (soluble fraction) was analyzed by SDS-PAGE and immunoblotted for p38δ and alpha-tubulin (negative control).

JNK1 = JNK1 degradation, western blot in MDA-MB-231 cells; format: cell-based, human; details: 0.025-2.5 µM
Protocol: […] once with ice-cold PBS (1 × ), followed by lysis in buffer containing 25 mM Tris [pH 7.5], 0.25% sodium deoxycholate, 1% Triton X-100, supplemented with 1X protease inhibitor cocktail (Roche), and phosphatase inhibitors (10 mM NaF, 1 mM Na3VO4, and 20 mM β-glycerophosphate), unless otherwise noted. Lysates were spun at 14,000 × g for 10 min at 4 °C and supernatant was evaluated for protein content using a Pierce BCA Protein Assay (ThermoFisher Scientific). In all experiments, 25–50 μg of protein was loaded onto 10% SDS-PAGE gels or 4–20% Criterion TGX precast gradient gels (Bio-Rad), transferred to nitrocellulose membranes, and probed with the specified antibodies overnight at 4 °C in 1X TBS-Tween (Tris-buffered saline plus 0.02% Tween 20) containing 5% non-fat milk. Immunoblots were visualized using a Bio-Rad ChemiDoc imaging instrument and subsequently processed and quantified using the accompanying Bio-Rad ImageLab software. See Supplementary Figure 8 for uncropped scans of western blots shown in the main text figures.
Supplementary Figure 4 cont.
Supplementary Figure 4. Characterization of M APK fam ily degradation selectivity (related to Figures 1-2). (a) p38 M APK fam ily m em bers (α, β, δ, γ) were aligned using the T-Coffee multiple sequence alignm ent server. […] Note: JNK1 and JNK2 are expressed as two alternatively-spliced form s. […]

Structure (SMILES)	ubiquitination of immunoprecipitated FLAG-p38δ (FLAG-p38δ)	thermal shift of α-tubulin (α-tubulin)	JNK1 degradation (JNK1)
COc1cc2c(Oc3ccc(NC(=O)C4(C(=O)Nc5ccc(F)cc5)CC4)cc3F)ccnc2cc1OCCOCCOCCOc1cc(-c2scnc2C)ccc1CNC(=O)[C@@H]1C[C@@H](O)CN1C(=O)[C@H](C(C)C)N1Cc2ccccc2C1=O [SJFδ]	levels of ubiquitination of immunoprecipitated p38δ greater than control cells	thermal shifts were not seen	neither PROTAC degrades
COc1cc2c(Oc3ccc(NC(=O)C4(C(=O)Nc5ccc(F)cc5)CC4)cc3F)ccnc2cc1OCCCCOCCCCOCC(=O)N[C@H](C(=O)N1C[C@H](O)C[C@H]1C(=O)NCc1ccc(-c2scnc2C)cc1)C(C)(C)C [SJFα]	far less abundant	thermal shifts were not seen	neither PROTAC degrades
